One test concerns the target GABAa receptor. As to the kind of experiment: GABAa receptor activity: displacement of 3H-RO15-1788 (3H-Flumazenil) binding in rat cortical tissue homogenate. The following applies: 3H-RO15-1788 0.5 nM, 30 min at 4° C., pH 7.4, rat cortical tissue. Here is the method:
The pharmaceutical utility of compounds of this invention are indicated by the following assay for GABAa receptor activity.
Assays are carried out as described in Thomas and Tallman (J. Bio. Chem. 156: 9838-9842, J. Neurosci. 3: 433-440, 1983). Rat cortical tissue is dissected and homogenized in 25 volumes (w/v) of 0.05M Tris HCl buffer (pH 7.4 at 4° C.). The tissue homogenate is centrifuged in the cold (4°) at 20,000×g for 20'. The supernatant is decanted and the pellet is rehomogenized in the same volume of buffer and again centrifuged at 20,000×g. The supernatant is decanted and the pellet is frozen at -20° C. overnight. The pellet is then thawed and rehomogenized in 25 volume (original wt/vol) of buffer and the procedure is carried out twice. The pellet is finally resuspended in 50 volumes (w/vol of 0.05M Tris HCl buffer (pH 7.4 at […]).
Incubations contain […] of radioligand 0.5 nM (^3 H-RO15-1788 [^3 H-Flumazenil] specific activity 80 Ci/mmol), drug or blocker and buffer to a total volume of […]. Incubations are carried for 30 min at 4° C. then are rapidly filtered through GFB filters to separate free and bound ligand. Filters are washed twice with fresh 0.05M Tris HCl buffer (pH 7.4° at 4° C.) and counted in a liquid scintillation counter. […] diazepam is added to some tubes to determine nonspecific binding. Data are collected in triplicate determinations, averaged and % inhibition of total specific binding is calculated. Total Specific Binding=Total - Nonspecific. In some cases, the amounts of unlabeled drugs is varied and total displacement curves of binding are carried out. Data are converted to a form for the calculation of IC50 and Hill Coefficient (nH).
On the technique in general: In a radioligand displacement assay an active substance lowers the binding of a labelled ligand.

The test system of a further test is GABA receptor. Particulars: Tallman et al., 1978; cited from earlier work.

For `c1ccc(-c2ncc3[nH]c4ccccc4c3n2)cc1` [Compound 4, 2-Phenyl-5H-indolo[3,2-d]pyrimidine], at GABAa receptor, the IC50 (usually the concentration that gives 50% inhibition) was found to be 20 nM. As to `CN1CCc2cc3c(cc2[C@@H]1[C@H]1OC(=O)c2c1ccc1c2OCO1)OCO3` [(-) bicuculline], the “blocking of enhancement of benzodiazepine binding by GABA agonists” value in the test on GABA receptor is “much less active”. As for `CN1CCc2cc3c(cc2[C@H]1[C@@H]1OC(=O)c2c1ccc1c2OCO1)OCO3` [(+) bicuculline], the “blocking of enhancement of benzodiazepine binding by GABA agonists” value in the test on GABA receptor is listed as “blocked”. Molecule `COc1ccc(-c2ncc3[nH]c4ccccc4c3n2)c(F)c1` [Compound 1, 2-(2-Fluoro-4-methoxyphenyl)-5H-indolo[3,2-d]pyrimidine] had a half-inhibitory concentration (IC50) at GABAa receptor of 2.5 nM. On the same count and under the same terms, next, `Oc1nc(-c2ccccc2)nc2c1[nH]c1ccccc12` [Compound 2, 4-Hydroxy-2-phenyl-5H-indolo[3,2-d]pyrimidine]: 100 nM.

The values above are taken from patent US5326868A, “Certain aryl fused pyrrolopyrimidines; a new class of GABA brain receptor ligands” (Neurogen Corporation, priority 1993, dated 1994).
